Structures can show the parent of a compound that is named as a salt.
System: not given
Assay: not given
Details: not given
With `N#CCCC1(CCC#N)C(=O)c2ccc(-c3cccnc3)cc2OC12CCCCC2` the melting point was 190 to 195 °C.
`N#CCCC1C(=O)c2ccc(-c3ccc(F)cc3)cc2OC12CCCCC2` (stereo not drawn) gave a melting point of 61 to 63 °C.
With `O=C(O)CCC1C(=O)c2ccc(-c3ccccc3)cc2OC12CCCCC2` (stereo not drawn) the melting point was 196 °C.
Work on `N#CCCC1(CCC#N)C(=O)c2ccc(Br)cc2OC12CCCCC2` yielded a melting point of 145 to 149 °C.
With `N#CCCC1C(=O)c2cc(F)c(F)cc2OC12CCCCC2` (stereo not drawn) the melting point was 80 °C.
`Cc1cccc(-c2ccc3c(c2)OC2(CCCCC2)C(CCC#N)C3=O)c1` (stereo not drawn) [Example 76] showed a melting point of 86 to 90 °C.

System: hepatitis B virus
Assay: antiviral action on hepatitis B virus in HepG2.2.15 cells (HBV DNA dot-blot hybridization)
Format: cell-based
Details: 96 h, 2 x 4 days incubation, intra- or extracellular hepatitis B-specific DNA band reduced by 50% vs untreated sample
Procedure: The antiviral action of the compounds according to the invention on hepatitis B virus was investigated by methods based on those described by M. A. Sells et al., Proc. Natl. Acad. Sci. 84, 1005-1009 (1987) and B. E. Korba et al., Antiviral Research 19, 55-70 (1992).
The antiviral tests were carried out in 96-well microtitre plates. The first vertical row of the plate received only growth medium and HepG2.2.15 cells. It served as virus control.
Stock solutions of the test compounds (50 mM) were initially dissolved in DMSO, and further dilutions were prepared in the HepG2.2.15 growth medium. The compounds according to the invention were usually pipetted in a test concentration of 100 μM (lst test concentration) in each case into the second vertical test row of the microtitre plate and subsequently diluted in twofold steps 2^10 times in growth medium +2% by weight fetal calf serum (volume 25 μl).
Each well of the microtitre plate then contained 225 μl of HepG2.2.15 cell suspension (5×10^4 cells/ml) in growth medium +2% by weight of fetal calf serum. The test mixture was incubated at 37° C. and 5% CO2 (v/v) for 4 days.
The supernatant was then aspirated off and discarded, and the wells received 225 μl of freshly prepared growth medium. The compounds according to the invention were each added anew as 10-fold concentrated solution in a volume of 25 μl. The mixtures were incubated for a further 4 days.
The supematants/cells were then harvested and sucked by means of a vacuum onto 96-well dot-blot chambers covered with a nylon membrane (in accordance with the manufacturer's information).
After the supernatants or lysed cells had been transferred to the nylon membrane of the blot apparatus (see above), the intra- or extracellular supernatants of the HepG2.2.15 cells were denatured (1.5 M NaCl/0.5 N NaOH), neutralized (3 M NaCl/0.5 M Tris HCl, pH 7.5) and washed (2× SSC). The DNA was then baked onto the membrane by incubating the filters at 120° C. for 2-4 hours.
Detection of the viral DNA from the treated HepG2.2.15 cells on the nylon filters was easily carried out with non-radioactive, digoxigenin-labelled hepatitis B-specific DNA probes, each of which was labelled with digoxigenin, purified and employed for the hybridization in accordance with the manufacturer's information.
The prehybridization and hybridization took place in 5× SSC, 1× blocking reagent, 0.1% by weight N-lauroylsarcosine, 0.02% by weight SDS and 100 μg of herring sperm DNA. The prehybridization took place at 60° C. for 30minutes, and the specific hybridization with 20 to 40 ng/ml of the digoxigenized, denatured HBV-specific DNA took place at 60° C. for 14 hours. The filters were then washed.
The immunological detection of the digoxigenin-labelled DNA took place in accordance with the manufacturer's information:
The filters were washed and prehybridized in a blocking reagent (in accordance with the manufacturer's information). Hybridization was then carried out with an anti-DIG antibody coupled to alkaline phosphatase for 30 minutes. After a washing step, the substrate of alkaline phosphatase, CSPD, was added, incubated with the filters for 5 minutes, then packed in plastic film and incubated at 37° C. for a further 15 minutes. The chemiluminescence of the hepatitis B-specific DNA signals was visualized by exposing the filters to an X-ray film (incubation depending on signal strength: 10 minutes to 2 hours).
The half-maximum inhibitory concentration (IC50, 50% inhibitory concentration) was determined as the concentration at which the intra- or extracellular hepatitis B-specific band was reduced by the compound according to the invention by 50% compared with an untreated sample.
`N#CCCC1C(=O)c2ccc(-c3cccc(N)c3)cc2OC12CCCCC2` (stereo not drawn) [Example 132, 3-(2-Cyanoethyl)-7-(3-aminophenyl)spiro[2H-1-benzopyran-2,1′-cyclohexan]-4(3H)-one Hydrochloride] gave an IC50 of 2 to 120 nM.
`N#CCCC1C(=O)c2ccc(-c3ccc(F)c(F)c3)cc2OC12CCC2` (stereo not drawn) [Example 99] showed an IC50 of 2 to 120 nM.
Molecule `N#CCCC1C(=O)c2ccc(-c3cccc([N+](=O)[O-])c3)cc2OC12CCCC2` (stereo not drawn) [Example 116] has an IC50 of 2 to 120 nM.
Molecule `N#CCCC1C(=O)c2ccc(-c3cccc(C#N)c3)cc2OC12CCCC2` (stereo not drawn) [Example 97] has an IC50 of 2 to 120 nM.
Work on `N#CCCC1C(=O)c2ccc(-c3ccc(F)c(F)c3)cc2OC12CCCC2` (stereo not drawn) [Example 82] yielded an IC50 of 2 to 120 nM.
Work on `Cc1cccc(-c2ccc3c(c2)OC2(CCCCC2)C(CCC#N)C3=O)c1` (stereo not drawn) [Example 76] yielded an IC50 of 2 to 120 nM.
